The target in this experiment is recombinant GST-tagged MDM2 / p53 peptide (Homo sapiens, UniProt Q00987). The experiment is described as follows: HTRF assay of inhibition of the p53-MDM2 interaction. Format: binding. As to conditions: GST-MDM2 and biotinylated p53 peptide, 37° C. 1 h. The method, then:
The ability of the compounds to inhibit the interaction between p53 and MDM2 proteins was measured by an HTRF (homogeneous time-resolved fluorescence) assay in which recombinant GST-tagged MDM2 binds to a peptide that resembles the MDM2-interacting region of p53 (Lane et al.). Binding of GST-MDM2 protein and p53-peptide (biotinylated on its N-terminal end) is registered by the FRET (fluorescence resonance energy transfer) between Europium (Eu)-labeled anti-GST antibody and streptavidin-conjugated Allophycocyanin (APC).
Test is performed in black flat-bottom 384-well plates (Costar) in a total volume of […] containing:90 nM biotinylate peptide, 160 ng/ml GST-MDM2, 20 nM streptavidin-APC (PerkinElmerWallac), 2 nM Eu-labeled anti-GST-antibody (PerkinElmerWallac), 0.2% bovine serum albumin (BSA), 1 mM dithiothreitol (DTT) and 20 mM […] (TBS) buffer as follows: Add 10 uL of GST-MDM2 (640 ng/ml working solution) in reaction buffer to each well. Add 10 uL diluted compounds (1:5 dilution in reaction buffer) to each well, mix by shaking. Add 20 uL biotinylated p53 peptide (180 nM working solution) in reaction buffer to each well and mix on shaker. Incubate at 37° C. for 1 h. Add 20 uL streptavidin-APC and Eu-anti-GST antibody mixture (6 nM Eu-anti-GST and 60 nM streptavidin-APC working solution) in TBS buffer with 0.2% BSA, shake at room temperature for 30 minutes and read using a TRF-capable plate reader at 665 and 615 nm (Victor 5, Perkin ElmerWallac). If not specified, the reagents were purchased from Sigma Chemical Co.
For orientation: In TR-FRET formats the signal depends on donor and acceptor labels being close together.
Chain of recombinant GST-tagged MDM2 / p53 peptide (Q00987 whole entry): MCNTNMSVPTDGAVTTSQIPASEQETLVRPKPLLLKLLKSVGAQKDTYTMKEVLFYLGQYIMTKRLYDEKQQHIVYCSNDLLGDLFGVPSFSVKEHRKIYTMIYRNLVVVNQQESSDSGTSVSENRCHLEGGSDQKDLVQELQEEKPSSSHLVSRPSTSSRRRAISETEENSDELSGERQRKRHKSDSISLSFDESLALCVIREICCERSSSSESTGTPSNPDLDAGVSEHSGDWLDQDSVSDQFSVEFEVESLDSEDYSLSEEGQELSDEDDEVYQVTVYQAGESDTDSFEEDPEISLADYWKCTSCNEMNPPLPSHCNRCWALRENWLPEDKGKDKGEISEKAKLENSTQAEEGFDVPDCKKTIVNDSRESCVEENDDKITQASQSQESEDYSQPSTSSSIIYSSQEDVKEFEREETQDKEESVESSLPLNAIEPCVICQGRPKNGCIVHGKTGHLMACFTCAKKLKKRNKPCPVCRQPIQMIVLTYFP
What is called IC50 is the point on the concentration scale where inhibition reaches its midpoint. In the case of `CCOc1cc(C(F)(F)F)ccc1C1=NC(c2ccc(Cl)cc2)C(c2ccc(Cl)cc2)N1C(=O)N(C)c1ccccn1` (centres unmarked) [Example 36, 4,5-Bis-(4-chloro-phenyl)-2-(2-ethoxy-4-trifluoromethyl-phenyl)-4,5-dihydro-imidazole-1-carboxylic acid methyl-pyridin-2-yl-amide], the IC50 came out at 4.26 µM.
The result for `CCOc1cc(C(F)(F)F)ccc1C1=NC(c2ccc(Cl)cc2)C(c2ccc(Cl)cc2)N1C(=O)N1CCC(NCC(=O)N(C)CCC#N)CC1` (centres unmarked) [Example 176, 2-{1-[4,5-Bis-(4-chloro-phenyl)-2-(2-ethoxy-4-trifluoromethyl-phenyl)-4,5-dihydro-imidazole-1-carbonyl]-piperidin-4-ylamino}-N-(2-cyano-ethyl)-N-methyl-acetamide] reads 0.021 µM; that for `CCOc1cc(C(F)(F)F)ccc1C1=NC(c2ccc(Cl)cc2)C(c2ccc(Cl)cc2)N1C(=O)N1CCN(S(=O)(=O)C(C)C)CC1` (centres unmarked) [Example 6, [4,5-Bis-(4-chloro-phenyl)-2-(2-ethoxy-4-trifluoromethyl-phenyl)-4,5-dihydro-imidazol-1-yl]-[4-(propane-2-sulfonyl)-piperazin-1-yl]-methanone], 0.1 µM.
On to `CCOc1cc(C(F)(F)F)ccc1C1=NC(c2ccc(Cl)cc2)C(c2ccc(Cl)cc2)N1C(=O)N1CCC(n2c(=O)[nH]c3ccccc32)CC1` (centres unmarked) [Example 26, 1-{1-[4,5-Bis-(4-chloro-phenyl)-2-(2-ethoxy-4-trifluoromethyl-phenyl)-4,5-dihydro-imidazole-1-carbonyl]-piperidin-4-yl}-1,3-dihydro-benzoimidazol-2-one], for which the IC50 amounted to 0.8 µM.
With `CCOc1cc(C(F)(F)F)ccc1C1=NC(c2ccc(Cl)cc2)C(c2ccc(Cl)cc2)N1C(=O)N1CCC(C(=O)OC)CC1` (centres unmarked) [Example 16, 1-[4,5-Bis-(4-chloro-phenyl)-2-(2-ethoxy-4-trifluoromethyl-phenyl)-4,5-dihydro-imidazole-1-carbonyl]-piperidine-4-carboxylic acid methyl ester], the IC50 came to 1.74 µM.
